In patent US8629103B2, “Treatment of non-proliferative cystic disease of the breast” (New York University, priority 2010, dated 2014):
“Also recorded” adds a separate entry of the source. Starred links: 1 amine or outer side, 2 acyl side, 3 side chain; linkers in the order of their positions; H or OH if unused. Non-standard residues stand in square brackets, D forms with d. Residues, ends and D or L forms follow the SMILES beside them. Groups on a side chain read outwards from the residue. *: point of attachment. Ethylenediamine = C(CN[*:2])N[*:1]; Hyp = O=C(O)[C@@H]1C[C@@H](O)CN1; Phg = N[C@H](C(=O)O)c1ccccc1; CO = O=C([*:1])[*:2]; Bn = c1ccc(C*)cc1

Key:
[1] = test system: IGF-I receptor, ERK, and AKT; assay: Western blots of phosphorylation of IGF-I receptor, ERK and AKT in treated Brca1LoxP/Brca1LoxP mice; assay type: in vivo; conditions: 4 month old Brca1LoxP/Brca1LoxP females; 7 days; PQ401 100 mg/kg thrice a week intraperitoneal; pasireotide 10 μg/kg/h by Alzet pump
Procedure: Western blots showing that the increased phosphorylation of IGF-I receptor and its downstream mediators ERK and AKT in Brca1^LoxP/Brca1^LoxP females is reduced by treatment with 100 mg/kg PQ401 thrice a week and 10 μg/kg/h pasireotide. The two WT samples are from age-matched, untreated C57Bl/6 control mice. PQ401 was administered by intraperitoneal injections, pasireotide by Alzet pump Model 2001. For both drugs, the course of treatment was 7 days.
FIG. 6 depicts Western blots showing the effects of IGF-I inhibition on the phosphorylation of IGF-I receptor, ERK, and AKT in 4 month old Brca1^LoxP/Brca1^LoxP. The increased phosphorylation of IGF-I receptor and its downstream mediators ERK and AKT in Brca1^LoxP/Brca1^LoxP females is reduced by treatment with 100 mg/kg PQ401 thrice a week and 10 μg/kg/h pasireotide. The two WT samples are from age-matched, untreated C57Bl/6 control mice. PQ401 was administered by intraperitoneal injections, pasireotide by Alzet pump Model 2001. For both drugs, the course of treatment was 7 days.

IGF-I receptor = IGF-I receptor (Homo sapiens, UniProt P08069); conditions: cited from earlier work
[2] = test system: Brca1^LoxP/Brca1^LoxP mice; assay: Mammary gland phenotype (whole mounts, hematoxylin-eosin sections, duct width, HANs) of treated Brca1LoxP/Brca1LoxP mice; assay type: in vivo; conditions: for mammary gland phenotype (whole mounts, histology): 7 days; for width of mammary gland ducts / ductal dilatation: 10 μg/kg/h for 7 days by Alzet pump, vs vehicle (water)
Procedure: Representative whole mounts of mammary glands from 4 month old Brca1^LoxP/Brca1^LoxP females treated with water (upper photomicrographs) or 10 μg/kg/h pasireotide (lower photomicrographs) for 7 days. Both water and pasireotide were administered by Alzet pump Model 2001.
FIG. 8 depicts effects of pasireotide on the mammary gland phenotype of Brca1^LoxP/Brca1^LoxP mice. Representative hematoxylin-eosin sections of mammary glands from 4 month old Brca1^LoxP/Brca1^LoxP females treated with water (left) or pasireotide (center and right) for 7 days. Both water and pasireotide were administered by Alzet pump Model 2001. The dosage of pasireotide was 10 μg/kg/h.
FIG. 9 depicts effects of pasireotide on duct width of mammary glands of Brca1^LoxP/Brca1^LoxP mice. […] Both water and pasireotide were administered by Alzet pump Model 2001. Six animals were treated with pasireotide and five animals were treated with water (control). […]
The present inventor has made the surprising discovery that mice comprising loxP sites flanking exon 11 of the BRCA1 gene (formally known as Brca1^loxP/loxP, but also referred to herein as LoxP mice) display profoundly abnormal mammary gland development at an early age. LoxP mice were acquired from the National Institutes of Health Mouse Repository. The strain is Stock Brcal^tm2Cxd and the Strain code is 01XC8. Mice were maintained in accordance with the standards established by the Association for Assessment and Accreditation of Laboratory Animal Care (AAALAC) (New York University).
Representative whole mounts of mammary glands from 4 month old Brca1^LoxP/Brca1^LoxP females treated with water (upper photomicrographs) or 10 μg/kg/h pasireotide (lower photomicrographs) for 7 days are shown. Both water and pasireotide were administered by Alzet pump Model 2001. […] These findings were confirmed on a histological level as shown in FIG. 8 which depicts representative hematoxylin-eosin sections of mammary glands from 4 month old Brca1^LoxP/Brca1^LoxP females treated with water (left) or pasireotide (center and right) for 7 days. Both water and pasireotide (10 μg/kg/h) were administered by Alzet pump Model 2001. […] Both water and pasireotide were administered by Alzet pump Model 2001. […]

[3] = test system: Ki67-positive epithelial cells in the mammary glands; assay: Ki67 immunohistochemistry of mammary epithelial cells in treated Brca1LoxP/Brca1LoxP mice; assay type: in vivo; conditions: 4 month old Brca1LoxP/Brca1LoxP mice; 7 days of treatment; vs vehicle
Description: The frequency of Ki67-positive mammary epithelial cells in C57Bl/6 controls treated with water (WT, water) is also presented. *, p<0.05 as compared with WT, water; **, p<0.01 as compared with WT, water; a, p<0.05 as compared with LoxP, water; b, p<0.01 as compared with LoxP, water.
The frequency of Ki67-positive mammary epithelial cells in C57Bl/6 controls treated with water (WT, water) is also presented. *, p<0.05 as compared with WT, water; **, p<0.01 as compared with WT, water; a, p<0.05 as compared with LoxP, water; b, p<0.01 as compared with LoxP, water. […] This finding is significant because Ki67 is a cancer antigen that is found in growing, dividing cells, but is absent in the resting phase of cell growth. Accordingly, Ki67 is viewed as a good tumor cell marker.

[4] = test system: mammary development in rats; conditions: Ruan et al. 2006; cited from earlier work
[5] = test system: growth hormone and estradiol induced mammary hyperplasia; conditions: Kleinberg et al. 2011; cited from earlier work
somatostatin receptors = conditions: cited from earlier work; for somatostatin receptors bound: of the 5 somatostatin receptors
breast cancer = conditions: women with certain hyperplastic lesions of the breast; clinical evidence; cited from earlier work
[6] = 4 month old Brca1LoxP/Brca1LoxP females, pasireotide 10 μg/kg/h Alzet pump vs water, PQ401 intraperitoneal vs 8% ethanol/Tween 80 in PBS

IGF-I receptor, sequence (P08069 31-1367, species assumed): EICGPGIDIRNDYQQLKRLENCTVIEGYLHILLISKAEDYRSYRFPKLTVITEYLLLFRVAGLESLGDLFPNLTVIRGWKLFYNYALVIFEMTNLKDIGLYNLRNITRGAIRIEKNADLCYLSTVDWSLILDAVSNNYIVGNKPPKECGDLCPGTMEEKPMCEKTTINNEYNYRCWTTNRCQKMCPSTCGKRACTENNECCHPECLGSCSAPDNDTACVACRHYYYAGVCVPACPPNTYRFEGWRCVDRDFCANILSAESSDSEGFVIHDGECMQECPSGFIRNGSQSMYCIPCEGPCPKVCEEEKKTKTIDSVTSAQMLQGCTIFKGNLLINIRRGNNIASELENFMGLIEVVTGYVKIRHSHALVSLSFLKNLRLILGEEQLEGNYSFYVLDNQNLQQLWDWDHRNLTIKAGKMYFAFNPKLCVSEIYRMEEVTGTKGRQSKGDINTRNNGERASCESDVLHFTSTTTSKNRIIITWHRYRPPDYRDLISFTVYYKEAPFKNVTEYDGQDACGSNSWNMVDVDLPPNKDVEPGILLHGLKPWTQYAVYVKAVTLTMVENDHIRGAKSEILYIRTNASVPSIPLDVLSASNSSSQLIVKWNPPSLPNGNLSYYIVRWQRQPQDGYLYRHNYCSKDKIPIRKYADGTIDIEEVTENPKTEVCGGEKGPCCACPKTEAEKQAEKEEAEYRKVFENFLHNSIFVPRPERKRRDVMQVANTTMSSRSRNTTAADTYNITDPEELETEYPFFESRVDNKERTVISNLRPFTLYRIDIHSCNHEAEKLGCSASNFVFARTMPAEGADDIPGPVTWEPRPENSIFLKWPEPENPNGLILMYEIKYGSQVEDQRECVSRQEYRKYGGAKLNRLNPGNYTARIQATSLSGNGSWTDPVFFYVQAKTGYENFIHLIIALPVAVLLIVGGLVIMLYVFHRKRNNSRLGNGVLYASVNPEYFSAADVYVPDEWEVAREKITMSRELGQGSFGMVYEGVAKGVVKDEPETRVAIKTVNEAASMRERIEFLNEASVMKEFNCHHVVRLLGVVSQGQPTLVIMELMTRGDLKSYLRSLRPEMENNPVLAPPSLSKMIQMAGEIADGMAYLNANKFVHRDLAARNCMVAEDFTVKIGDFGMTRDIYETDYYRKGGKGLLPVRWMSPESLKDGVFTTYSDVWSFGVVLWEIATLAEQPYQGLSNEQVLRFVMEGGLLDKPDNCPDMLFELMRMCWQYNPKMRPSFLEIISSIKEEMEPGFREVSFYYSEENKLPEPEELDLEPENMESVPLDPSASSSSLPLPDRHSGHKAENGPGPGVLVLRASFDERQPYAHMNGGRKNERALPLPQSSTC

COc1ccc(Cl)cc1NC(=O)Nc1cc(C)nc2ccccc12 [PQ401]
phosphorylation of IGF-I receptor and its downstream mediators ERK and AKT [1]: reduced
IGF-I receptor inhibition (IGF-I receptor): very potent and specific
mammary gland phenotype (whole mounts, histology) [2, 6]: dramatically reduces
Ki67-positive epithelial cells in the mammary glands (cell proliferation) [3]: reduces; also recorded: significantly reduced

NCCCC[C@@H]1NC(=O)[C@@H](Cc2c[nH]c3ccccc23)NC(=O)[C@H](c2ccccc2)NC(=O)[C@@H]2C[C@@H](OC(=O)NCCN)CN2C(=O)[C@H](Cc2ccccc2)NC(=O)[C@H](Cc2ccc(OCc3ccccc3)cc2)NC1=O [pasireotide] (cyclo([Hyp]([CO-Ethylenediamine])[Phg][dW]KY(Bn)F))
phosphorylation of IGF-I receptor and its downstream mediators ERK and AKT [1]: reduced
IRS-1 phosphorylation in the mammary gland (IGF-I action) [4]: reduction
growth hormone secretion from the pituitary [4]: inhibitory effect
mammary development [4]: prevents
efficacy compared with tamoxifen in preventing growth hormone and estradiol-induced mammary hyperplasia [5]: at least as effective as tamoxifen
growth hormone and estradiol induced mammary hyperplasia [5]: prevents
width of mammary gland ducts / ductal dilatation ([2]; 4 month old Brca1LoxP/Brca1LoxP females): effective in decreasing
width of mammary gland ducts / ductal dilatation ([2]; 4 month old Brca1LoxP/Brca1LoxP females, listed as SOM230): significant effect on inhibiting; also recorded: significantly reduced
mammary gland phenotype (whole mounts, histology) [2, 6]: dramatically reduces
formation of HANs (hyperplastic alveolar nodules) ([2]; LoxP mice at 4 months of age treated with SOM230): preventing
number of ducts ([2]; affected LoxP animals, SOM230 or control vehicle for 1 week): unchanged
Ki67-positive epithelial cells in the mammary glands (cell proliferation) [3]: reduces; also recorded: significantly reduced
affinity for SSTR3 and/or SSTR5 receptors (somatostatin receptors): has affinity
somatostatin receptors bound (somatostatin receptors): 4 of the 5

CC/C(=C(\c1ccccc1)c1ccc(OCCN(C)C)cc1)c1ccccc1 [tamoxifen]
growth hormone and estradiol induced mammary hyperplasia [5]: prevent
prevention of the development of cancer (breast cancer): about 50%

somatostatin-14 [SS-14]
mammary gland phenotype (whole mounts, histology) ([2]; 9 month old Brca1LoxP/Brca1LoxP females, Alzet pump, vs water): reduces
number of HANs ([2]; nine month old LoxP animals treated for a week): impressive reduction
somatostatin receptors bound (somatostatin receptors): all
